*1 amine or outer side, *2 acyl side, *3 side chain or, on linkers, in order; H or OH if unused. Where a SMILES comes first, the peptide text is derived from it. Bridges are numbered along the chain shown (N, C = ends). [ ]: non-standard residue; d: D form. The star is where a group is joined. hPhe(3-Cl-4-CF3) = N[C@@H](CCc1ccc(C(F)(F)F)c(Cl)c1)C(=O)O; NPrPhe(4-CF3) = CCCN[C@@H](Cc1ccc(C(F)(F)F)cc1)C(=O)O; NEtPhe(4-CF3) = CCN[C@@H](Cc1ccc(C(F)(F)F)cc1)C(=O)O; X32 = Cc1ccc(C[C@@H](C(=O)[*:2])N(CC2CCCC2)[*:1])cc1; hPhe(3,4-Cl2) = N[C@@H](CCc1ccc(Cl)c(Cl)c1)C(=O)O; NMeGly(cPent) = CN[C@H](C(=O)O)C1CCCC1; Pro(4,4-F2) = O=C(O)[C@@H]1CC(F)(F)CN1; NEtPhe = CCN[C@@H](Cc1ccccc1)C(=O)O; NMeD = CN[C@@H](CC(=O)O)C(=O)O; NMeL = CN[C@@H](CC(C)C)C(=O)O; Morpholide = C1CN(*)CCO1; NMeA = CN[C@@H](C)C(=O)O; Ac5c = NC1(C(=O)O)CCCC1; Aze = O=C(O)[C@@H]1CCN1; Ac4c = NC1(C(=O)O)CCC1; Sar = CNCC(=O)O
Key:
[1] = target: HRAS wild-type protein (Homo sapiens, UniProt P01112); experiment: Binding to HRAS by surface plasmon resonance (SPR), KD and KD ratio to KRAS
Procedure, shortened: (§1)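 Each cycle, GDP-bound biotin-Avi RAS was captured (~100–300 RU), compound concentrations were injected low to high for 75 s each at 100 µL/min, then the chip was regenerated. Buffer: HBS pH 7.4, 10 mM MgCl2, 10 µM GDP, 1 mM DTT, 4% DMSO; 30°C. KD from a 1:1 binding model.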

[2] = target: GDP-bound NRAS wild-type protein (Homo sapiens, UniProt P01111); experiment: Binding to NRAS by surface plasmon resonance (SPR), KD and KD ratio to KRAS
Procedure, shortened: as §1

[3] = system: human lung cancer strain NCI-H441; format: cell-based
Procedure, shortened: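 Signal came from […] measured per well once the reagent was added. Beforehand, cells were cultured at 37°C and 5% carbon dioxide on a compound series serially diluted in dimethyl sulfoxide.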

[4] = ratio of KD for HRAS wild-type protein to KD for KRAS
[5] = ratio of KD for GDP-bound NRAS wild-type protein to KD for KRAS
[6] = ratio of the KD value with respect to HRAS wild-type protein to the KD value with respect to KRAS
[7] = ratio of the KD value with respect to GDP-bound NRAS wild-type protein to the KD value with respect to KRAS

Chain of GDP-bound NRAS wild-type protein (P01111 whole entry): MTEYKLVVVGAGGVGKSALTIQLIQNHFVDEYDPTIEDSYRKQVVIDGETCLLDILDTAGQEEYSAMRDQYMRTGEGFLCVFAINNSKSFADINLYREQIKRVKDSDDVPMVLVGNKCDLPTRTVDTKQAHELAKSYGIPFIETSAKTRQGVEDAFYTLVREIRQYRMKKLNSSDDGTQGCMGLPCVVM
Chain of HRAS wild-type protein (P01112 whole entry): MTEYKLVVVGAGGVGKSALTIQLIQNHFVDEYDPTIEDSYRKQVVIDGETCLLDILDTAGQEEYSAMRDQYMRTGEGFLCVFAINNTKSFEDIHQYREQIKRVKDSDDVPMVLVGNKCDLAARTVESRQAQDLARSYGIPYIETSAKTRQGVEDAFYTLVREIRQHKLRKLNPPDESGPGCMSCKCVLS

| Structure (SMILES) | IC50 [3] [nM] | HRAS /KRAS [1, 4] | NRAS /KRAS [2, 5] | HRAS /KRAS [1, 6] | NRAS /KRAS [2, 7] | HRAS /KRAS ([1]; ratio of KD value for HRAS wild-type protein to KD value for KRAS (SPR)) | NRAS /KRAS ([2]; ratio of KD value for GDP-bound NRAS wild-type protein to KD value for KRAS (SPR)) |
| --- | --- | --- | --- | --- | --- | --- | --- |
| CC[C@H](C)[C@@H]1NC(=O)[C@H](CC(C)C)N(C)C(=O)C[C@@H](C(=O)N2CCOCC2)N(C)C(=O)[C@H](C2CCCC2)N(C)C(=O)C2(CCCC2)NC(=O)[C@@H]2CCCN2C(=O)[C@H](CCc2ccc(C(F)(F)F)c(Cl)c2)NC(=O)CN(C)C(=O)[C@H](Cc2ccc(C)cc2)N(CC2CCCC2)C(=O)[C@@H]2CCN2C(=O)[C@H](C)N(C)C1=O [PP0084] ([NMeL]I[NMeA][Aze][X32][Sar][hPhe(3-Cl-4-CF3)]P[Ac5c][NMeGly(cPent)][NMeD]-Morpholide; lactam N-11) | 50 | B (a compound having 3 or more and less than 10 is denoted as B) | C (A compound having a KD ratio of 0.1 or more and less than 3 is denoted as C) |  |  |  |  |
| CCCN1C(=O)CN(C)C(=O)CNC(=O)[C@H]([C@@H](C)CC)NC(=O)[C@H](CC(C)C)N(C)C(=O)C[C@@H](C(=O)N(C)C)NC(=O)[C@H](C2CCCC2)N(C)C(=O)C2(CCC2)NC(=O)[C@@H]2CC(F)(F)CN2C(=O)[C@H](CCc2ccc(C(F)(F)F)c(Cl)c2)NC(=O)CN(C)C(=O)[C@@H]1Cc1ccc(C(F)(F)F)cc1 [PP0364] ([NMeL]IG[Sar][NPrPhe(4-CF3)][Sar][hPhe(3-Cl-4-CF3)][Pro(4,4-F2)][Ac4c][NMeGly(cPent)]D-NMe2; lactam N-11) | 103 | B (a compound having 3 or more and less than 10 is denoted as B) | B (a compound having 3 or more and less than 10 is denoted as B) |  |  |  |  |
| CCO[C@@H]1C[C@H]2C(=O)NC3(CCC3)C(=O)N(C)[C@@H](C3CCCC3)C(=O)N(C)[C@H](C(=O)N(C)C)CC(=O)N(C)[C@@H](CCC(=O)N(C)C)C(=O)N[C@@H]([C@@H](C)CC)C(=O)N(C)CC(=O)N(C)[C@H]3C/C=C\CCN(C3=O)[C@@H](Cc3ccc(C(F)(F)F)cc3)C(=O)N(C)CC(=O)N[C@@H](CCc3cc(F)c(C(F)(F)F)c(F)c3)C(=O)N2C1 [PP1122] | 275 | B (a compound having 3 or more and less than 10 is denoted as B) | A (a compound having 10 or more and less than 20 is denoted as A) |  |  |  |  |
| CCC[C@H]1C(=O)N[C@@H]([C@@H](C)CC)C(=O)N(C)CC(=O)N(C)[C@H]2C/C=C\CCN(C2=O)[C@@H](Cc2ccc(C)cc2)C(=O)N(C)CC(=O)N[C@@H](CCc2ccc(Cl)c(C(F)(F)F)c2)C(=O)N2C[C@H](OCC)C[C@H]2C(=O)NC2(CC(C)(C)C2)C(=O)N(C)[C@@H](C(CC)CC)C(=O)N(C)[C@H](C(=O)N(C)C)CC(=O)N1C [PP2787] | 22.1 | A (a compound having 10 or more and less than 20 is denoted as A) | AA (a compound having 20 or more is denoted as AA) |  |  |  |  |
| CCC(CC)[C@H]1C(=O)N(C)[C@H](C(=O)N(C)C)CC(=O)N(C)[C@@H](COC)C(=O)N[C@@H]([C@@H](C)CC)C(=O)N(C)CC(=O)N(C)[C@H]2C/C=C\CCN(C2=O)[C@@H](Cc2ccc(C(F)(F)F)cc2)C(=O)N(C)CC(=O)N[C@@H](CCc2cc(F)c(C(F)(F)F)c(F)c2)C(=O)N2CCOC[C@H]2C(=O)NC2(CC(C)(C)C2)C(=O)N1C [PP2917] | 130 | A (a compound having 10 or more and less than 20 is denoted as A) | AA (a compound having 20 or more is denoted as AA) |  |  |  |  |
| CCO[C@@H]1C[C@H]2C(=O)NC3(CCC3)C(=O)N(C)[C@@H](C3CCCC3)C(=O)N(C)[C@@H](C(C)C)CC(=O)N(C)[C@@H](CC3CC3)C(=O)N[C@@H]([C@@H](C)CC)C(=O)N(C)CC(=O)N(C)[C@H]3C/C=C\CCN(C3=O)[C@@H](Cc3ccc(C(F)(F)F)cc3)C(=O)N(C)CC(=O)N[C@@H](CCc3cc(F)c(C(F)(F)F)c(F)c3)C(=O)N2C1 [PP1596] | 18.1 |  |  |  |  | B (a compound having 3 or more and less than 10 is denoted as B) | A (a compound having 10 or more and less than 20 is denoted as A) |

Continued by falling IC50 [3], values first:

| IC50 [3] [nM] | Structure (SMILES) | HRAS /KRAS [1, 4] | NRAS /KRAS [2, 5] | HRAS /KRAS [1, 6] | NRAS /KRAS [2, 7] | HRAS /KRAS ([1]; ratio of KD value for HRAS wild-type protein to KD value for KRAS (SPR)) | NRAS /KRAS ([2]; ratio of KD value for GDP-bound NRAS wild-type protein to KD value for KRAS (SPR)) |
| --- | --- | --- | --- | --- | --- | --- | --- |
| 17.7 | CCCN(C)C(=O)[C@@H]1CC(=O)N(C)[C@@H](C(C)C)C(=O)N[C@@H]([C@@H](C)CC)C(=O)N(C)CC(=O)N(C)[C@H]2C/C=C\CCN(C2=O)[C@@H](Cc2ccc(C(F)(F)F)cc2)C(=O)N(C)CC(=O)N[C@@H](CCc2cc(F)c(C(F)(F)F)c(F)c2)C(=O)N2C[C@H](OCC)C[C@H]2C(=O)NC2(CCC2)C(=O)N(C)[C@@H](C2CCCC2)C(=O)N1C [PP1992] |  |  | B (a compound having 3 or more and less than 10 is denoted as B) | AA (a compound having 20 or more is denoted as AA) |  |  |
| 17.1 | CC[C@H](C)[C@@H]1NC(=O)[C@H](CC(C)C)N(C)C(=O)C[C@@H](C(=O)N2CCOCC2)N(C)C(=O)[C@H](C2CCCC2)N(C)C(=O)C2(CCCC2)NC(=O)[C@@H]2CCCN2C(=O)[C@H](CCc2ccc(C(F)(F)F)c(Cl)c2)NC(=O)CN(C)C(=O)[C@H](Cc2ccccc2)N(CC)C(=O)CN(C)C(=O)CN(C)C1=O [PP0210] ([NMeL]I[Sar][Sar][NEtPhe][Sar][hPhe(3-Cl-4-CF3)]P[Ac5c][NMeGly(cPent)][NMeD]-Morpholide; lactam N-11) | C (A compound having a KD ratio of 0.1 or more and less than 3 is denoted as C) | C (A compound having a KD ratio of 0.1 or more and less than 3 is denoted as C) |  |  |  |  |
| 16.7 | CC[C@H](C)[C@@H]1NC(=O)[C@H](CC(C)C)N(C)C(=O)C[C@@H](C(=O)N2CCOCC2)N(C)C(=O)[C@H](C2CCCC2)N(C)C(=O)C2(CCCC2)NC(=O)[C@@H]2CCCN2C(=O)[C@H](CCc2ccc(C(F)(F)F)c(Cl)c2)NC(=O)CN(C)C(=O)[C@H](Cc2ccc(OC)cc2)N2CCCC[C@@H](C2=O)N(C)C(=O)CN(C)C1=O [PP0534] |  |  | B (a compound having 3 or more and less than 10 is denoted as B) | B (a compound having 3 or more and less than 10 is denoted as B) |  |  |
| 11.1 | CCCN1C(=O)[C@@H]2CCN2C(=O)[C@H](C)N(C)C(=O)[C@H]([C@@H](C)CC)NC(=O)[C@H](CC(C)C)N(C)C(=O)C[C@@H](C(=O)N(C)C)NC(=O)[C@H](C2CCCC2)N(C)C(=O)C2(CCCC2)NC(=O)[C@@H]2CC(F)(F)CN2C(=O)[C@H](CCc2ccc(C(F)(F)F)c(Cl)c2)NC(=O)CN(C)C(=O)[C@@H]1Cc1ccc(C(F)(F)F)cc1 [PP0381] ([NMeL]I[NMeA][Aze][NPrPhe(4-CF3)][Sar][hPhe(3-Cl-4-CF3)][Pro(4,4-F2)][Ac5c][NMeGly(cPent)]D-NMe2; lactam N-11) | B (a compound having 3 or more and less than 10 is denoted as B) | C (A compound having a KD ratio of 0.1 or more and less than 3 is denoted as C) |  |  |  |  |
| 10.5 | CCC[C@H]1C(=O)N[C@@H]([C@@H](C)CC)C(=O)N(C)CC(=O)N(C)[C@H]2C/C=C\CCN(C2=O)[C@@H](Cc2ccc(C(F)(F)F)cc2)C(=O)N(C)CC(=O)N[C@@H](CCc2ccc(Cl)c(C(F)(F)F)c2)C(=O)N2C[C@H](OCC)C[C@H]2C(=O)NC2(CC(C)(C)C2)C(=O)N(C)[C@@H](C(CC)CC)C(=O)N(C)[C@H](C(=O)N(C)C)CC(=O)N1C [PP2785] | A (a compound having 10 or more and less than 20 is denoted as A) | AA (a compound having 20 or more is denoted as AA) |  |  |  |  |
| 10 | CCO[C@@H]1C[C@H]2C(=O)NC3(CCC3)C(=O)N(C)[C@@H](C(CC)CC)C(=O)N(C)[C@H](C(=O)N3CCCC3)CC(=O)N(C)[C@H]3CCC/C=C/c4ccc(cc4)C[C@@H](C(=O)N(C)CC(=O)N[C@@H](CCc4ccc(Cl)c(Cl)c4)C(=O)N2C1)N1CC/C=C\C[C@@H](C1=O)N(C)C(=O)CN(C1CC1)C(=O)[C@H]([C@@H](C)CC)NC3=O [PP3040] | A (a compound having 10 or more and less than 20 is denoted as A) | AA (a compound having 20 or more is denoted as AA) |  |  |  |  |
| 4 | CC[C@H](C)[C@@H]1NC(=O)[C@H](CC(C)C)N(C)C(=O)C[C@@H](C(=O)N2CCOCC2)N(C)C(=O)[C@H](C2CCCC2)N(C)C(=O)C2(CCCC2)NC(=O)[C@@H]2CCCN2C(=O)[C@H](CCc2ccc(Cl)c(Cl)c2)NC(=O)CN(C)C(=O)[C@H](Cc2ccc(C(F)(F)F)cc2)N(CC)C(=O)CN(C)C(=O)CN(C)C1=O [PP0237] ([NMeL]I[Sar][Sar][NEtPhe(4-CF3)][Sar][hPhe(3,4-Cl2)]P[Ac5c][NMeGly(cPent)][NMeD]-Morpholide; lactam N-11) | C (A compound having a KD ratio of 0.1 or more and less than 3 is denoted as C) | B (a compound having 3 or more and less than 10 is denoted as B) |  |  |  |  |
| 1.5 | CCCN1C(=O)[C@@H]2CCN2C(=O)[C@H](C)N(C)C(=O)[C@H]([C@@H](C)CC)NC(=O)[C@H](CC(C)C)N(C)C(=O)C[C@@H](C(=O)N(C)C)N(C)C(=O)[C@H](C2CCCC2)N(C)C(=O)C2(CCCC2)NC(=O)[C@@H]2CCCN2C(=O)[C@H](CCc2ccc(C(F)(F)F)c(Cl)c2)NC(=O)CN(C)C(=O)[C@@H]1Cc1ccc(C(F)(F)F)cc1 [PP0178] ([NMeL]I[NMeA][Aze][NPrPhe(4-CF3)][Sar][hPhe(3-Cl-4-CF3)]P[Ac5c][NMeGly(cPent)][NMeD]-NMe2; lactam N-11) | B (a compound having 3 or more and less than 10 is denoted as B) | C (A compound having a KD ratio of 0.1 or more and less than 3 is denoted as C) |  |  |  |  |

Reference: patent publication EP4603105A1, “PHARMACEUTICAL COMPOSITION CONTAINING CYCLIC COMPOUND HAVING SELECTIVE KRAS INHIBITORY EFFECT AGAINST HRAS AND NRAS” (CHUGAI SEIYAKU KABUSHIKI KAISHA, priority 2022, dated 2024)
